Data published in patent publication US12102085B2, “Insecticidal active mixtures comprising carboxamide compound” (priority 2013, dated 2024).

Assays:
Format in all cases: in vivo
[1] = tested on: vetch aphid (Megoura viciae); assay: Test B.1 Control of vetch aphid, sprayed broad bean leaf disks in 24-well microtiter plates; conditions: 5 days, aphid mortality and fecundity
Method: For evaluating control of vetch aphid (Megoura viciae) through contact or systemic means the test unit consisted of 24-well-microtiter plates containing broad bean leaf disks.
The compounds or mixtures were formulated using a solution containing 75% (v/v) water and 25% (v/v) DMSO. Different concentrations of formulated compounds or mixtures were sprayed onto the leaf disks at 2.5 μl, using a custom built micro atomizer, at two replications.
(§1) For the experimental mixtures in this test identical volumes of both mixing partners at the desired concentrations respectively, were mixed together.
After application, the leaf disks were air-dried and 5-8 adult aphids placed on the leaf disks inside the microtiter plate wells. The aphids were then allowed to suck on the treated leaf disks and incubated at 23±1° C., 50±5% RH for 5 days.
Aphid mortality and fecundity was then visually assessed.

[2] = tested on: Southern Green Stink Bug (Nezara viridula); assay: Test B.6 Control of Southern Green Stink Bug, dipped green beans and dipped insects; conditions: for Average Control % [observed mortality]: Nezara viridula 4th instar, 5 ppm, after 5 days
Method: The compounds and respective mixtures were formulated using a solution containing 50:50 water:acetone with 0.01 wt % Kinetic®. Whole Green Beans were rinsed in a 1% bleach solution, triple rinsed with DI water, and allowed to air dry at least 30 minutes in the fume hood. They were dipped in treatment solutions for approximately 5 seconds and allowed to air dry for another 30 minutes in the fume hood. For maximum exposure, Southern Green Stink Bugs (SGSB, 4th instar) were dipped in treatment solution for approximately 3 seconds and allowed to air dry in a cup lined with filter paper and closed with a vented lid for approximately 10 minutes in the fume hood. Three beans were placed in cups with a dry filter paper in the bottom and a portion cup with a cotton wick for water (=assay arena), and were infested with 4 SGSB per cup. Each treatment was replicated 3-fold (1 replicate=3 beans with 4 SGSB). The assays arenas were held at 27° C. and 45% room humidity. Data were recorded after 5 days as number of insects alive and dead. Nezara viridula mortality (%) was calculated as: [(pre-treatment count−post treatment count)/pre-treatment count]×100.

[3] = tested on: boll weevil (Anthonomus grandis); assay: Test B.2 Control of boll weevil, insect diet with eggs in 24-well microtiter plates; conditions: 5 days, egg and larval mortality
Method: For evaluating control of boll weevil (Anthonomus grandis) the test unit consisted of 24-well-microtiter plates containing an insect diet and 20-30 A. grandis eggs.
The compounds or mixtures were formulated using a solution containing 75% (v/v) water and 25% (v/v) DMSO. Different concentrations of formulated compounds or mixtures were sprayed onto the insect diet at 20 μl, using a custom built micro atomizer, at two replications.
as §1
After application, microtiter plates were incubated at 23±1° C., 50±5% RH for 5 days.
(§2) Egg and larval mortality was then visually assessed.

[4] = tested on: Mediterranean fruitfly (Ceratitis capitata); assay: Test B.5 Control of Mediterranean fruitfly, insect diet with eggs in 96-well microtiter plates; conditions: 5 days, egg and larval mortality
Method: For evaluating control of Mediterranean fruitfly (Ceratitis capitata) the test unit consisted of 96-well-microtiter plates containing an insect diet and 50-80 C. capitata eggs.
The compounds and respective mixtures were formulated using a solution containing 75% (v/v) water and 25% (v/v) DMSO. Different concentrations of formulated compounds and mixtures were sprayed onto the insect diet at 5 μl, using a custom built micro atomizer, at two replications. For the experimental mixtures in this test identical volumes of both mixing partners at the desired concentrations respectively, were mixed together.
(§3) After application, microtiter plates were incubated at 28±1° C., 80±5% RH for 5 days.
as §2

[5] = tested on: tobacco budworm (Heliothis virescens); assay: Test B.4 Control of tobacco budworm, insect diet with eggs in 96-well microtiter plates; conditions: 5 days, egg and larval mortality
Method: For evaluating control of tobacco budworm (Heliothis virescens) the test unit consisted of 96-well-microtiter plates containing an insect diet and 15-25 H. virescens eggs.
The compounds or mixtures were formulated using a solution containing 75% (v/v) water and 25% (v/v) DMSO. Different concentrations of formulated compounds or mixtures were sprayed onto the insect diet at 10 μl, using a custom built micro atomizer, at two replications.
as §1, §3, §2

[6] = tested on: yellow fever mosquito (Aedes aegypti); assay: Test B.3 Control of yellow fever mosquito, larvae in 96-well microtiter plates; conditions: 2 days, larval mortality
Method: Test Principle: Curative Ultrasonic Spraying of Larvae in Liquid Diet
For evaluating control of yellow fever mosquito (Aedes aegypti) the test unit consisted of 96-well-microtiter plates containing 200 μl of tap water per well and 5-15 freshly hatched A. aegypti larvae.
The compounds or mixtures were formulated using a solution containing 75% (v/v) water and 25% (v/v) DMSO. Different concentrations of formulated compounds or mixtures were sprayed onto the insect diet at 2.5 μl, using a custom built micro atomizer, at two replications.
as §1
After application, microtiter plates were incubated at 28±1° C., 80±5% RH for 2 days.
Larval mortality was then visually assessed.

[7] = Nezara viridula, 120 h, read-out: Average Control % [observed mortality]

SMILES: CC(C)(C)[C@]1(O)C[C@@H]2OC(=O)C[C@@]23C(=O)O[C@@H]2OC(=O)[C@H](O)[C@]213 [Bilobalid, (3aS,5aR,8aS,9R,10aR)-9-tert-butyl-8,9-dihydroxydihydro-9H-furo[2,3-b]furo[3′,2′;2,3]cyclopenta[1,2-c]furan-2,4,7(3H,8H)-trione]
- Average Control % ([1]; 25 ppm): 0%
- Average Control % [observed mortality] [2]: 19%

SMILES: O=[N+]([O-])NC1=NCCN1Cc1ccc(Cl)nc1 [Imidacloprid, imidacloprid]
- Average Control % ([3]; 10 ppm): 0%
- Average Control % ([4]; 10 ppm): 25%
- Average Control % ([5]; 0.4 ppm): 0%

SMILES: CN(C(=O)c1ccccc1)c1cccc(C(=O)Nc2c(Br)cc(C(F)(C(F)(F)F)C(F)(F)F)cc2C(F)(F)F)c1F [carboxamide compound of formula I]
- Average Control % ([1]; 0.02 ppm): 0%
- Average Control % ([1]; 0.5 ppm): 0%
- Average Control % ([3]; 0.5 ppm): 0%
- Average Control % ([4]; 0 ppm (so in the source)): 0%
- mortality at 1 ppm [2, 7]: 13%
- mortality at 10 ppm [2, 7]: 88%
- Average Control % ([6]; 0 + 0.5 ppm): 0%
- Average Control % ([5]; 0.1 ppm): 0%
- Average Control % ([5]; 0.5 ppm): 50%

SMILES: C[C@@H]1C(=O)O[C@H]2C[C@@]34[C@H]5C[C@@H](C(C)(C)C)[C@]36[C@@H](OC(=O)[C@@H]6O)O[C@@]4(C(=O)O5)[C@]21O [Ginkolide A, ginkgolide A]
- Average Control % [observed mortality] [2]: 13%

SMILES: Cc1c(COC(=O)[C@@H]2[C@H](/C=C(\Cl)C(F)(F)F)C2(C)C)cccc1-c1ccccc1 (racemic) [Bifenthrin, bifenthrin]
- Average Control % ([6]; 40 + 0 ppm): 0%

SMILES: O=C(NC(=O)c1c(F)cccc1F)Nc1cc(Cl)c(F)c(Cl)c1F [Teflubenzuron, teflubenzuron]
- Average Control % ([1]; 2 ppm): 0%
- Average Control % ([5]; 50 ppm): 0%
